Test results published in ChEMBL document CHEMBL1201862, “PubChem BioAssay data set” (2004).
The source made the active and inactive calls.

Tests used:
[1] = target: Eukaryotic translation initiation factor 4E (Mus musculus, UniProt P63073); assay: blockers of eIF4G binding by eIF4E – biochemical, TR-FRET, dose response (AID 855); assay type: functional;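 note: potency for disrupting eIF4E binding to eIF4GI seen as loss of FRET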
[2] = fluconazole-exposed Candida albicans growth modulators – fluorescence, retest, confirmation (AID 2467); assay type: functional, cell-based
[3] = Luminescence-based counterscreen assay for KLF5 inhibitors: dose response cell-based high throughput screening assay to identify cytotoxic compounds using the IEC-6 intestinal epithelial cell line. [Related pubchem assays: 1700 (Primary screen.), 1834 (Confirmation screen.), 1858 (Summary AID.), 1905 (Counterscreen.)]; assay type: functional
Streptococcus = assay: GAS UMAA2166 growth inhibition – luminescence, BacTiterGlo, counter-screen for streptokinase expression inhibitor project, dose response (AID 1915); assay type: functional, organism-based;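 note: potency for reduction of bacterial viability or growth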
INS1 = assay: INS-1E survival protection against cytokine death – cell-based, luminescence, retest, dose response (AID 449756); assay type: functional; conditions: Rattus norvegicus;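 note: cell death triggered by IL-1 beta plus TNF-alpha plus IFN-gamma mixture; protective hits raise ATP signal compared with cytokine alone wells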
Paired box protein Pax-8 = Paired box protein Pax-8 (Homo sapiens, UniProt Q06710); assay: PAX8 transcriptional activity inhibition in RMG-I – RMG-I cells, luciferase, cherry-pick, dose response (AID 687027); assay type: functional, cell-based;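 note: luciferase reporter driven by Pax8 target thyroperoxidase promoter measured by SteadyGlo luminescence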
[4] = target: ATP-dependent molecular chaperone HSP82 (Candida albicans (strain WO-1) (Yeast), UniProt C4YTQ8); assay: steroid-induced GRE reporter decrease in yeast – S. cerevisiae, luminescence, Hsp90 inhibitor project, dose response (AID 2400); assay type: functional, cell-based;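 note: beta-galactosidase luminescence from glucocorticoid response element reporter as proxy for Hsp90 function; inhibitor potency where signal loss means Hsp90 inhibition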
[5] = NIH-3T3 fibroblast cytotoxicity, dose response, cytotoxicity control, cell-based, fluorescence, Alamar Blue, secondary assay (AID 2327); assay type: functional;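 note: NIH-3T3 mouse fibroblasts cultured with fluconazole at 8 µg/mL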
[6] = target: T1, Serine/threonine-protein phosphatase (Candida dubliniensis (strain CD36 / CBS 7987 / NCPF 3949 / NRRLY-17841) (Yeast), UniProt B9W6M3); assay: blockers of CaCl2-induced CDRE-lacZ signaling – S. cerevisiae, luminescence, secondary, dose response (AID 2388); assay type: functional, cell-based;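 note: yeast reporter cells carrying a calcineurin-responsive lacZ construct stimulated with calcium chloride; luminescent beta-galactosidase reporter signal in whole cells rather than isolated phosphatase activity; potency for inhibition where a drop in reporter signal means calcineurin blockade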
T1 sequence (B9W6M3 whole entry): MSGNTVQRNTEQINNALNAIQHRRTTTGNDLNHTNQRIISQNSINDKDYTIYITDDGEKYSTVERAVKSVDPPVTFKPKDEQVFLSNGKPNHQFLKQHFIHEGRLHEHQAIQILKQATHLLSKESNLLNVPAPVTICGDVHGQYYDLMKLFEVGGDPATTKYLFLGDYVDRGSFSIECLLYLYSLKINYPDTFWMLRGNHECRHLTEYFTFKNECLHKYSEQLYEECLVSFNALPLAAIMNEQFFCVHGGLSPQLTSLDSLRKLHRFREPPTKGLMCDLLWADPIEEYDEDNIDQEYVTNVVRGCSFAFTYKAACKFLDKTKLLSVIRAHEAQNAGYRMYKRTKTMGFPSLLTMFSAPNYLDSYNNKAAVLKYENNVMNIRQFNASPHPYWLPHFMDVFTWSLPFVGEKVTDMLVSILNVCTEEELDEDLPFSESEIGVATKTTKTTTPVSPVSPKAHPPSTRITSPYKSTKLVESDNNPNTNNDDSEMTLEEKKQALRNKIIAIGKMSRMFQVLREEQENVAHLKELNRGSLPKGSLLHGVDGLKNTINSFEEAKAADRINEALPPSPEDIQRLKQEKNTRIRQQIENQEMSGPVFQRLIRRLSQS

[7] = test system: Streptococcus sp. 'group A'; assay: Streptococcus pyogenes SK(-)GAS viability under kanamycin – luminescence, BacTiterGlo, confirmation, counter-screen for streptokinase expression inhibitor project, dose response (AID 1900); assay type: functional, organism-based
Nonstructural protein 1 = Nonstructural protein 1 (Influenza A virus, UniProt Q194T2); assay type: functional, Influenza A virus (A/California/07/2009(H1N1))
[8] = target: T2, Alkaline phosphatase, tissue-nonspecific isozyme (Homo sapiens, UniProt P05186)
T2 sequence (P05186 whole entry): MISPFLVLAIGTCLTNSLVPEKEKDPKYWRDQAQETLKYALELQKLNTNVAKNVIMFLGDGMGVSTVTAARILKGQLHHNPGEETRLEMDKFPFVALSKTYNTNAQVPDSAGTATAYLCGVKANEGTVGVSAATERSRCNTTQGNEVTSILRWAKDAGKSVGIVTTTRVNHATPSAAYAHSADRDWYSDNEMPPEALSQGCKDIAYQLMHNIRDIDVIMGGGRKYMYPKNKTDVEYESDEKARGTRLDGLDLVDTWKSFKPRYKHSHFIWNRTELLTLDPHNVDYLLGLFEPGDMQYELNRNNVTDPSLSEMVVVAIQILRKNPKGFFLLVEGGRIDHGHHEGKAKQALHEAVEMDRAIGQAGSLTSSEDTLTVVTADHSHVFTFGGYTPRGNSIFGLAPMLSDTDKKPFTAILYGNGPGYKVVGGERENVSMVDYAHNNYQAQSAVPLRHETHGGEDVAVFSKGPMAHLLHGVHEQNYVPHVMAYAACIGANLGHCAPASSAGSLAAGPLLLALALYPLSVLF

Hexokinase HKDC1 = Hexokinase HKDC1 (Homo sapiens, UniProt Q2TB90); assay: inhibition of HKDC1 glucose phosphorylation – biochemical, W721R variant, dose response (AID 504729); assay type: functional
[9] = NIH3T3 cell viability loss – ATP luminescence, mouse fibroblasts, counter-screen, dose response (AID 2010); assay type: functional, cell-based;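 note: cells exposed to compound for about 90 hours before reading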
[10] = target: T3, Kappa-type opioid receptor (Homo sapiens, UniProt P41145); assay type: functional
Beta-galactosidase = Beta-galactosidase (Escherichia coli, UniProt Q8VNN2); assay type: functional
[11] = Trypanosoma cruzi growth suppression in host cells – NIH3T3 host cells, beta-gal luminescence, confirmation (AID 2044); assay type: functional, cell-based;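 note: intracellular parasites grown in NIH/3T3 mouse fibroblasts as host cells; luminescent beta-galactosidase reporter signal from transgenic T. cruzi replicating inside host cells; inhibitors lower the luminescence signal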
[12] = target: T3, Kappa-type opioid receptor; assay type: functional; remark: listed apart in the source
[13] = target: FAD-linked sulfhydryl oxidase ALR (Homo sapiens, UniProt P55789); assay: ALR-catalysed DTT oxidation blockers – biochemical, H2O2 detection, luminescence, cherry-pick, dose response (AID 493248)
[14] = HIV-1 AD8 envelope cell-cell fusion blockers – cherry-pick, dose response (AID 652062); assay type: functional, cell-based;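 note: luciferase signal from cell-cell fusion driven by HIV-1 clade B AD8 Env; potency is for inhibitors of fusion seen as a drop in luminescence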
cells = assay type: functional, cell-based
[15] = alpha-synuclein stem-loop luciferase translation blockers – H4 neuroglioma cells, luminescence, confirmation (AID 1988); assay type: functional, cell-based
[16] = luciferase reporter signal suppression in cells – H4 neuroglioma cells, luminescence, dose response (AID 1990); assay type: functional, cell-based
[17] = viability loss in HEK293 cells – cell-based, plate reader, cherry-picked samples, cytotoxicity control, dose response (AID 743446); assay type: functional
[18] = blockers of HIV-1 envelope-mediated cell-cell fusion – cherry-pick, dose response (AID 652057); assay type: functional, cell-based
[19] = target: T4, Heat shock factor protein 1 (Mus musculus, UniProt P38532); assay: decrease of HSF1-responsive luciferase luminescence – cell-based, NIH3T3, dose retest, confirmation (AID 2382); assay type: functional;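 note: NIH3T3 fibroblasts with HSF1-driven luciferase reporter stressed by proteasome inhibitor MG132; luminescence from HSF1-driven luciferase expression after 8 hours of MG132 stress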
T4 sequence (P38532 whole entry): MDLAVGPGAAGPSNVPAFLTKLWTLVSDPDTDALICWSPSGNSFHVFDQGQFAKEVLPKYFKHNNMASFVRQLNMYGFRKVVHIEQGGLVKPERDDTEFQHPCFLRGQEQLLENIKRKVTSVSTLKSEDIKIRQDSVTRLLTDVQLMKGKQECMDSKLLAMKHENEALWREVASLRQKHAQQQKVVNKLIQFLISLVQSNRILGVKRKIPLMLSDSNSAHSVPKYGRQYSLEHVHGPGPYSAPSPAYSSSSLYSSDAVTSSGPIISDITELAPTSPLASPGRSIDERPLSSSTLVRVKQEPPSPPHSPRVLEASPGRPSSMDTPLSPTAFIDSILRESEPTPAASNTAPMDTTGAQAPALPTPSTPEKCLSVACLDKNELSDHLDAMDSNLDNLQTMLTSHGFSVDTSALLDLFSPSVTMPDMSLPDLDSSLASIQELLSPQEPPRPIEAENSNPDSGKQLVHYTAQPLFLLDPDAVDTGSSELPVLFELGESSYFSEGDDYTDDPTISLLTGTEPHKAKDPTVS

[20] = blockers of HIV-1 ZM109 envelope-driven cell-cell fusion – HeLa effector, CEM target cells, luciferase, cherry-pick, dose response (AID 652058); assay type: functional, cell-based;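 note: luciferase signal from HIV-1 Env mediated cell-cell fusion of effector and target cells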
[21] = alpha-synuclein stem-loop translation blockers – luminescence, H4 neuroglioblastoma cells, dose confirmation, confirmation (AID 2454); assay type: functional, cell-based;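 note: H4 neuroglioblastoma cells carrying an alpha-synuclein 5'UTR luciferase reporter; potency for inhibition of the luciferase signal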
[22] = luciferase reporter signal reduction – luminescence, H4-C neuroglioblastoma cells, dose response (AID 2458); assay type: functional, cell-based;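 note: H4 neuroglioblastoma cells stably carrying a luciferase reporter gene fusion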
[23] = off-target signal loss in HeLa-CEM21 co-culture – HeLa F-luc CTL cells, cherry-picked, counter-screen for HIV-1 Env fusion inhibitor project, dose response (AID 652040); assay type: functional, cell-based;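 note: potency for signal decrease marking cytotoxic or nonspecific inhibition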
[24] = A549 cell cytotoxicity, dose response, cytotoxicity control, plate reader, cherry-pick, antagonist series (AID 743412); assay type: functional, cell-based
[25] = Luminescence Cell-Based Dose Response HTS to Identify Inhibitors of 5'UTR Stem-Loop Driven Prion Protein mRNA Translation in H4 Neuroglioblastoma Cells. [Related pubchem assays: 1827 (Project Summary), 1813 (Primary HTS)]; assay type: functional
[26] = blockers of bursicon-stimulated LGR2 cAMP reporter – cell-based, HEK293, CRE-luciferase reporter, cherry pick, set 2, dose response (AID 743343); assay type: functional;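 note: transfected cells were stimulated with diluted bursicon conditioned medium after compound addition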
[27] = blockade of melanocortin 4 receptor signaling – cell-based, plate reader, cherry pick, counter-screen for LGR2 antagonist project, dose response (AID 743444); assay type: functional;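 note: transfected HEK 293 cells stimulated with alpha-MSH peptide; potency of inhibitors of the alpha-MSH evoked signal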

Sequence of Paired box protein Pax-8 (Q06710 whole entry): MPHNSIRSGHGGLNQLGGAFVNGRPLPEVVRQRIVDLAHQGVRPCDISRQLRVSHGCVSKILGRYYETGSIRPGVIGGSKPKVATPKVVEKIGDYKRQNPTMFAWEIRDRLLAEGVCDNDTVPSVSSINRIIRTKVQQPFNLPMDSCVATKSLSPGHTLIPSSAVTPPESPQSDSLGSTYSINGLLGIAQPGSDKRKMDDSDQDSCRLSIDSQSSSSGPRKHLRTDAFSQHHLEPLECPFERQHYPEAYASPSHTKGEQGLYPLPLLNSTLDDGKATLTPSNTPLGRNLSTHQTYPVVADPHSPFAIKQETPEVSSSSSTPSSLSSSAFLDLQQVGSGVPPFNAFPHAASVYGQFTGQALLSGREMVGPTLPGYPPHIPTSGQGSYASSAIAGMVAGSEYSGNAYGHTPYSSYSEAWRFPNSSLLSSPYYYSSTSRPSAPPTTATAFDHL
T3 sequence (P41145 whole entry): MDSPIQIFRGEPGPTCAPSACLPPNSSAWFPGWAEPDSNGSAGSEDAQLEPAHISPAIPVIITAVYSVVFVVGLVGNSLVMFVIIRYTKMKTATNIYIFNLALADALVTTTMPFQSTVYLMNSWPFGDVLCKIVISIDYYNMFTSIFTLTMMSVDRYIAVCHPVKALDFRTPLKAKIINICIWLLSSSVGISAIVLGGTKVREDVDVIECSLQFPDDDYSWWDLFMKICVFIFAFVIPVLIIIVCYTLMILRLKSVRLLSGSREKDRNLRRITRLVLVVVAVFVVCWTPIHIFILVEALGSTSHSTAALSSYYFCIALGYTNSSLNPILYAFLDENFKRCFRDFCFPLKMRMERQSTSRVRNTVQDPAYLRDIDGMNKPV
Sequence of Hexokinase HKDC1 (Q2TB90 whole entry): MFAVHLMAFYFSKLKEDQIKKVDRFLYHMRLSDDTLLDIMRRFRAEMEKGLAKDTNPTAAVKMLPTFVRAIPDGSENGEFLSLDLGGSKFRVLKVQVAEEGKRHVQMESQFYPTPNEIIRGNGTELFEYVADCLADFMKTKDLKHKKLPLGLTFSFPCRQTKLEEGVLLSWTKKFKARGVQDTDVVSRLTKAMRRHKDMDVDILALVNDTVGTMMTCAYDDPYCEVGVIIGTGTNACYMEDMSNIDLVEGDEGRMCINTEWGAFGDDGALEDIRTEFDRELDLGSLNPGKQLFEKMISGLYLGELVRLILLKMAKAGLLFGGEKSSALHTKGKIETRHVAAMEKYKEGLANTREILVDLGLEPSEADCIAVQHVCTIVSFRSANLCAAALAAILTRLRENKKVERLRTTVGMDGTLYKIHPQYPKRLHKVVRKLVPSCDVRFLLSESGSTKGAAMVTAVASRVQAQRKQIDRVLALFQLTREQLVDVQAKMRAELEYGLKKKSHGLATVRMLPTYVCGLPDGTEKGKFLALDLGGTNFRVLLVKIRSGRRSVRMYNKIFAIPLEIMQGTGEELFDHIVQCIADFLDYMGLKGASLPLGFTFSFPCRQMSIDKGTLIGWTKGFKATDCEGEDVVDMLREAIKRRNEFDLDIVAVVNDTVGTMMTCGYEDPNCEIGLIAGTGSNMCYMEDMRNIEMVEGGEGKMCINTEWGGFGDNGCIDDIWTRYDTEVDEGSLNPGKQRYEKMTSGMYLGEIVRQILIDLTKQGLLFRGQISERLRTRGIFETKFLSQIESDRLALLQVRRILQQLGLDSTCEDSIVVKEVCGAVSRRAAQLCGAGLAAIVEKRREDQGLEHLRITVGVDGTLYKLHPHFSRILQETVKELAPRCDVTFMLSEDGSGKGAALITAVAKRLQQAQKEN
Sequence of Eukaryotic translation initiation factor 4E (P63073 whole entry): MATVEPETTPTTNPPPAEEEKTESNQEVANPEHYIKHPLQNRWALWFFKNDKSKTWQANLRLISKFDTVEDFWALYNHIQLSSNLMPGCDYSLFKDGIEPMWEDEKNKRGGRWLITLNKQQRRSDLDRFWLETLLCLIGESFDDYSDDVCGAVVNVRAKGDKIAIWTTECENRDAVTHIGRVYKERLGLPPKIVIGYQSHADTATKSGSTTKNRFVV
Sequence of ATP-dependent molecular chaperone HSP82 (C4YTQ8 whole entry): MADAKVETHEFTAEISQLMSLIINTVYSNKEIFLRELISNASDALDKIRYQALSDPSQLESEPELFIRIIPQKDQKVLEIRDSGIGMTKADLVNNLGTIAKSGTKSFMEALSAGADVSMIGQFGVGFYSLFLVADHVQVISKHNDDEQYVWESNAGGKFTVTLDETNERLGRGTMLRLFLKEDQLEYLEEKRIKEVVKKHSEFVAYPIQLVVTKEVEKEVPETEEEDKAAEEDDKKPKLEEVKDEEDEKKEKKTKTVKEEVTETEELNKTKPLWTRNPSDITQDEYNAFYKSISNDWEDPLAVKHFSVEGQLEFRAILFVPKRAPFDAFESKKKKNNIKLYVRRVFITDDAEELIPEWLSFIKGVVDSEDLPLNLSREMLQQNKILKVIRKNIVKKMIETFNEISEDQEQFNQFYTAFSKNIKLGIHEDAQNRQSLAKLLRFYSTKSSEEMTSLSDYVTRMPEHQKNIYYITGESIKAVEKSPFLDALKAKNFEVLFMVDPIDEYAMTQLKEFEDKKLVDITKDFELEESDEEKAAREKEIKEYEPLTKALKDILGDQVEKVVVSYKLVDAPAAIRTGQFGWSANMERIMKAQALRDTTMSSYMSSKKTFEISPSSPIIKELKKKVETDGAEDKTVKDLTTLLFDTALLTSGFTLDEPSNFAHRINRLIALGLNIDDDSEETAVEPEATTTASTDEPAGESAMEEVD
Sequence of FAD-linked sulfhydryl oxidase ALR (P55789 whole entry, the tested form may be a part): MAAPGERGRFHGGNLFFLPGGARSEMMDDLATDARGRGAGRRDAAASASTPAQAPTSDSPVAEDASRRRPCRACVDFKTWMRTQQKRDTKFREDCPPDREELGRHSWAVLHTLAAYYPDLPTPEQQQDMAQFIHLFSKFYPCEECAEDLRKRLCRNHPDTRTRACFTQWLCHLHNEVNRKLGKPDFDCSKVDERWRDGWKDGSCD
Sequence of Beta-galactosidase (Q8VNN2 whole entry): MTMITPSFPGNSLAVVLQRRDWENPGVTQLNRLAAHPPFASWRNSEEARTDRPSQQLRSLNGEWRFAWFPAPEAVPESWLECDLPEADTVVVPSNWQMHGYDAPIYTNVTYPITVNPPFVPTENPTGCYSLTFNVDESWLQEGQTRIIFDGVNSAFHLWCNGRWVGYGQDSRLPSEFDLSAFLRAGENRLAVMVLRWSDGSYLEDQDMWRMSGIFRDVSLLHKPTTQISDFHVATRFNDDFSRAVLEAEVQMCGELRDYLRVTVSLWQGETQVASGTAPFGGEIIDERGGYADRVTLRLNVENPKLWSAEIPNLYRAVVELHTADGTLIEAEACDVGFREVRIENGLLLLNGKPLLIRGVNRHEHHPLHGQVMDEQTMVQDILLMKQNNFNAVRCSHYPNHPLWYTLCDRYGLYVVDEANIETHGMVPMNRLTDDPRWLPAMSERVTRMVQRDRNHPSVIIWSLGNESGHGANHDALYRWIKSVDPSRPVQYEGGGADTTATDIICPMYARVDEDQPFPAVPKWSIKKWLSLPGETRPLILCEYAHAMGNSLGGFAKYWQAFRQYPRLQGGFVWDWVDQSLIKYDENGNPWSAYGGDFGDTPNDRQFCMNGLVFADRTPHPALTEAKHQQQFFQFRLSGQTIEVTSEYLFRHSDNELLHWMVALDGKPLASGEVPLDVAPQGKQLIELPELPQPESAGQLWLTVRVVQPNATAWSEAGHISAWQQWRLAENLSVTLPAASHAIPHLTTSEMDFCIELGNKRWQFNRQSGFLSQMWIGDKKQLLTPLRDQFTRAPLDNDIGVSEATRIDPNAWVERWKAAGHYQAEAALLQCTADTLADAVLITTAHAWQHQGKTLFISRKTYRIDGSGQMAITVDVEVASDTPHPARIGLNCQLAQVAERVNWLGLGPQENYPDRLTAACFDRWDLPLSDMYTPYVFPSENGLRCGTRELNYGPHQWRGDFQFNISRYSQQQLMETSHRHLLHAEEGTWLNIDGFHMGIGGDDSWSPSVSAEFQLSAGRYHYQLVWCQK
Sequence of Nonstructural protein 1 (Q194T2 whole entry): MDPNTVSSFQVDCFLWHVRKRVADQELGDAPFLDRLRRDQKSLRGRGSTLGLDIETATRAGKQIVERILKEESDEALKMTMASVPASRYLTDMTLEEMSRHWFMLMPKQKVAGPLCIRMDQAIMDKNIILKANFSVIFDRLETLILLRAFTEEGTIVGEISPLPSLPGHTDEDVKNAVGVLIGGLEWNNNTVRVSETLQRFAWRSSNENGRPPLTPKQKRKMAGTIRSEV

In the case of `O=C(CCN1C(=O)C2C3C=CC(C3)C2C1=O)Nc1ccccn1` (stereo unspecified), the IC50 [1] is reported as > 64 µM (inactive).

For `CCN(CC)S(=O)(=O)c1cc(OC)ccc1N=Nc1ccc(O)c2ncccc12`, the EC50 [2] was 0.524 µM (active), the IC50 [3] was 15.7 µM (not active) and the EC50 (Streptococcus) was 8.84 µM (active). For the same molecule, the AC50 (INS1) was 2.41 µM (active), the AC50 (Paired box protein Pax-8) was 1.27 µM (active) and the EC50 [4] was 13.5 µM (active). The EC50 [5] was 96.3 µM (active), the EC50 [6] was > 180 µM (inactive) and the EC50 [7] was 1.61 µM (active). For the same molecule, the IC50 (Nonstructural protein 1) was 11.7 µM (active).

For `Cc1ccc(OCC(=O)Nc2ccc3c(c2)OCCO3)cc1C`, the EC50 [8] was > 100 µM (not active).

In the case of `Cc1cccc(C)c1Nc1nnc(SCc2cn3cccc(C)c3n2)s1`, the IC50 (Hexokinase HKDC1) is reported as > 80 µM (inactive).

In the case of `Cc1ccccc1NC(=O)c1ccc(Nc2c([N+](=O)[O-])cc([N+](=O)[O-])c3ccccc23)cc1`, the EC50 [9] is reported as > 60 µM (inconclusive), the IC50 [10] is reported as 9.63 µM (active) and the EC50 (Beta-galactosidase) is reported as 11.3 µM (active). For the same molecule, the EC50 [11] was 0.937 µM (active) and the IC50 [12] was over 32 µM.

For `O=C(O)c1cccc(COc2ccc3c(c2)CCC3)c1`, the AC50 [13] was 1.37 µM (active), the AC50 [14] was 1.47 µM (active) and the EC50 (cells) was 0.538 µM (active). For the same molecule, the EC50 [15] was < 0.1 µM (active), the EC50 [16] was 0.212 µM (active) and the IC50 [3] was > 39.8 µM (not active). For the same molecule, the AC50 [17] was > 52 µM (inactive), the AC50 [18] was 0.684 µM (active) and the EC50 [19] was 0.376 µM (inconclusive). The AC50 [20] was 5.09 µM (active), the EC50 [21] was 0.197 µM (active) and the EC50 [22] was 0.233 µM (active). The AC50 (Paired box protein Pax-8) was 3.79 µM (active), the AC50 [23] was 1.68 µM (active) and the AC50 [24] was > 52 µM (inactive). For the same molecule, the EC50 [25] was < 0.1 µM (active), the AC50 [26] was 0.326 µM (active) and the AC50 [27] was 0.383 µM (active).
